# Results: ChEMBL document CHEMBL5712075, “The histone methyltransferase EZH2 as a novel prosurvival factor in clinically aggressive chronic lymphocytic leukemia” (Oncotarget, 2016)
# Tests used:
# [1] = molecular target: Histone-lysine N-methyltransferase EZH2 (Homo sapiens) (UniProt Q15910); experiment: Inhibition of EZH2 in human CD19+ B cells assessed as decrease in H3K27me3 levels measured as percentage abundance at 4 uM by Western blot analysis relative to control; format: cell-based; parameters: scale not given: the % may be the effect or the level left; settings: CD19 positive B cell
# Chain of Histone-lysine N-methyltransferase EZH2 (Homo sapiens) (Q15910 whole entry, looked up): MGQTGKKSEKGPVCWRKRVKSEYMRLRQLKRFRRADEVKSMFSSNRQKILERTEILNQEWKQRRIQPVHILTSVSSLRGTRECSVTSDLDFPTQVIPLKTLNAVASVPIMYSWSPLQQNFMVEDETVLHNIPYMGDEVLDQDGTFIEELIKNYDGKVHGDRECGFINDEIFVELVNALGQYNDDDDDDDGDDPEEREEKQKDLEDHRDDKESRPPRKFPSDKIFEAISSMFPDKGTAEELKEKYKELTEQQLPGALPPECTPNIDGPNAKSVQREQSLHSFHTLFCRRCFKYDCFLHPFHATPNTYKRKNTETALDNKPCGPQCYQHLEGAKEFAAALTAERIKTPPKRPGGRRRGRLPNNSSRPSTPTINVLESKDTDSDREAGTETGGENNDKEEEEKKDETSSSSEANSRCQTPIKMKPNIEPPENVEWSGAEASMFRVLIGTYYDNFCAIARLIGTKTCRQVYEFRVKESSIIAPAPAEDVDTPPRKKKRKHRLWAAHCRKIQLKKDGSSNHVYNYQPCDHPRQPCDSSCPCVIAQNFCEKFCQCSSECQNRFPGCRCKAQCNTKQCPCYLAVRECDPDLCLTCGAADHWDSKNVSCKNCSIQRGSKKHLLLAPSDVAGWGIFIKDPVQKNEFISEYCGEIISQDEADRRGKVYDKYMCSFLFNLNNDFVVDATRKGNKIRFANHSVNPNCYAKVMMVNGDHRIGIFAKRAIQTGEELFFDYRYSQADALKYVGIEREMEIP
# [2] = molecular target: Histone-lysine N-methyltransferase EZH2 (Homo sapiens) (UniProt Q15910); experiment: Inhibition of EZH2 in human CD19+ B cells assessed as decrease in cell viability at 4 uM after 5 to 13 days by annexin-V/PI staining based flow cytometry; settings: CD19 positive B cell, time 5-13 day, TDE = time-dependent effect
# [3] = molecular target: Histone-lysine N-methyltransferase EZH2 (Homo sapiens) (UniProt Q15910); experiment: Inhibition of EZH2 in human CD19+ B cells assessed as decrease in H3K27me3 levels measured as percentage abundance at 4 uM after 2 days by Western blot analysis relative to control; format: cell-based; parameters: scale not given: the % may be the effect or the level left; settings: CD19 positive B cell, time 2.0 day
# [4] = molecular target: Histone-lysine N-methyltransferase EZH2 (Homo sapiens) (UniProt Q15910); experiment: Inhibition of EZH2 in human CD19+ B cells assessed as decrease in H3K27me3 levels measured as percentage abundance at 4 uM after 8 days by Western blot analysis relative to control; format: cell-based; parameters: scale not given: the % may be the effect or the level left; settings: CD19 positive B cell, time 8.0 day
# [5] = molecular target: Histone-lysine N-methyltransferase EZH2 (Homo sapiens) (UniProt Q15910); experiment: Inhibition of EZH2 in human CD19+ B cells assessed as decrease in H3K27me3 levels measured as percentage abundance at 4 uM after 4 days by Western blot analysis relative to control; format: cell-based; parameters: scale not given: the % may be the effect or the level left; settings: CD19 positive B cell, time 4.0 day
# [6] = molecular target: Histone-lysine N-methyltransferase EZH2 (Homo sapiens) (UniProt Q15910); experiment: Inhibition of EZH2 in human CD19+ B cells assessed as decrease in H3K27me3 levels measured as percentage abundance at 4 uM after 6 days by Western blot analysis relative to control; format: cell-based; parameters: scale not given: the % may be the effect or the level left; settings: CD19 positive B cell, time 6.0 day
# [7] = molecular target: Histone-lysine N-methyltransferase EZH2 (Homo sapiens) (UniProt Q15910); experiment: Inhibition of EZH2 in human CD19+ B cells assessed as decrease in H3K27me3 levels measured as percentage abundance at 4 uM after 10 days by Western blot analysis relative to control; format: cell-based; parameters: scale not given: the % may be the effect or the level left; settings: CD19 positive B cell, time 10.0 day
smiles,measurement,setting,value
CCCc1cc(C)[nH]c(=O)c1CNC(=O)c1cc(-c2ccnc(N3CCN(C)CC3)c2)cc2c1cnn2C(C)C,Activity,[1],66%
same,inhibition,[2],Tde
same,Activity,[3],99.6%
same,Activity,[4],65.1%
same,Activity,[5],100%
same,Activity,[6],99.5%
same,Activity,[7],65.2%
